Values of other authors in US20230210112A1, “METHOD FOR GROWING PLANTS” (Taminco BV, priority 2020, published 2023).

What was measured:
Tomato plants = settings: treated tomato seedlings
cauliflower seedlings = settings: 20 mM BABA
pests = settings: in vivo

Concentration at which root growth repression was observed (as low as) (Tomato plants) [µM] | Reduction in growth of cauliflower seedlings (cauliflower seedlings) [%] | SMILES | Effect on plant growth or development (in words) (pests) | Resistance-inducing activity (in words) (pests)
500 | 14.7 | CC(N)CC(=O)O (stereo not drawn) [BABA, beta-aminobutyric acid] |  | 
 |  | N[C@@H](CO)CC(=O)O [(R)-beta-homoserine] | without affecting plant growth or development | strong resistance-inducing activity
250 |  | CC/C=C\C[C@H]1C(=O)CC[C@@H]1CC(=O)O [JA, jasmonic acid] |  | 
